Patent publication US20120245229A1, “METHOD FOR TREATING NEUROPATHIC PAIN” (priority 2009, published 2012)
Like-named read-outs stand apart in the source and are kept apart here.

Assays:
lamina II neurons = assay: Patch clamp recording of sEPSCs in lamina II neurons of spinal cord slices; format: cell-based, mice
Procedure: (§1) Spinal cord slice preparation. As previously reported^39, a portion of the lumbar spinal cord (L4-L5) was removed from young mice (3-4 week old) under urethane anesthesia (1.5-2.0 g/kg, i.p.) and transverse spinal cord slices were cut (600 μm) on a vibrating microslicer. The slices were perfused with Kreb's solution (8 ml/min) for >2 h prior to experiments. Some slices were stimulated with TNF-α (10 ng/ml, 5 min), the slices were fixed with 4% paraformaldehyde for 1 h, and processed pERK immunohistochemistry using thin sections (15 μm)^13.
(§2) Patch clamp recordings in spinal slices. Whole cell patch-clamp recordings were performed in lamina II neurons in voltage clamp mode^39. After establishing the whole-cell configuration, neurons were held at the holding potentials of −70 mV for recording spontaneous excitatory postsynaptic current (sEPSC). NMDA-induced currents were recorded by bath application of NMDA (50 μM, Sigma) at the holding potential of −50 mV. Membrane currents were amplified with an Axopatch 200A amplifier (Axon Instruments) in voltage-clamp mode. pCLAMP 6 was used and Mini Analysis (Synaptosoft Inc.) software to store and analyze the data. Those cells showing >5% changes from the baseline levels were reagrded as responding ones^24.
(§3) Resolvins were also used for intraplantar injection. RvD1 or RvE1 was injected into the plantar surface of a hindapaw [20 ng, 20 μl , in 1% ethanol (Supplementary FIG. 5a, 5b) or in 10% ethanol (FIG. 2e, Supplementary FIG. 1d)]. DRG cultures were incubated with RvE1 (10 ng/ml, 0.1% ethanol in culture medium) and perfused spinal cord slices with RvE1 (1 ng/ml, in 0.01% ethanol and Kreb's solution).
(§4) Perfusion of spinal cord slices: Spinal cord slices were incubated with chemerin (100 ng/ml, in Kreb's solution), TNF-α (10 ng/ml, in Kreb's solution), capsaicin (100 nM, in 0.01% DMSO and Kreb's solution), TRPV1 antagonist capsazepine (Sigma, 10 μM, in 0.01% DMSO and Kreb's solution), pertussix toxin (0.5 μg/ml, in Kreb's solution), and MEK inhibitor PD98059 and U0126 (CalBiochem, 1 μM, in 0.01% DMSO and Kreb's solution). For pertussix toxin treatment, spinal cord slices were incubated with the toxin for 3 h before stimulation.

[1] = system: glutamate NMDA receptors (NMDARs); assay: NMDA-induced currents in dorsal horn (lamina II) neurons of spinal cord slices; format: cell-based, mice; conditions: NMDA 50 μM; TNF-α 10 ng/ml; PD98059 1 μM, U0126 1 μM, capsazepine 10 μM
Procedure: as §1, §2, §3, §4

[2] = system: formalin-induced inflammatory pain; assay: Formalin-induced spontaneous inflammatory pain (licking/flinching duration); format: in vivo, mice; conditions: for reversal of RvE1's antinociceptive action, formalin 2nd phase: intrathecal, pertussis toxin 0.2 μg, naloxone 2 μg, ChemR23 siRNA 3 μg daily for 3 days before formalin; for formalin-induced pain behavior, 2nd phase: preemptive intrathecal injection, RvE1 0.3 and 1.0 ng, morphine 10 to 500 ng, NS-398 0.1, 1, and 10 μg, chemerin 0.45 to 100 ng
Procedure: (§5) Animals and pain models. Adult CD1 mice (male, 25-32 g) were used for most experiments. Knockout mice were used lacking TNFR1/II (Tnfrsf1a/1b^−/−) and TRPV1 (Trpv1^−/−) and C57BL/6 wild-type control mice, all from Jackson, for some experiments. All animal procedures performed in this study were approved by the Harvard Medical Area Standing Committee on Animals. 20 μl of diluted formalin (5%), carrageenan (CRG, 1%), or complete Freund's adjuvant (CFA) were injected into the plantar surface of a hindpaw to produce acute, persistent, or chronic inflammatory pain, respectively. Postoperative pain was also produced through hindpaw incision^36 and neuropathic pain by ligation of the spinal nerve^37.
(§6) Reagents and administration. RvE1 and RvD1 were suspended in 1% or 10% ethanol as vehicle for investigating acute (<1 h) and persistent (1-6 h) effects of resolvins on inflammatory pain. The reagents (10 μl) were delivered to the cerebral spinal fluid via intrathecal injection made by a spinal cord puncture between the L5 and L6 level with a 30G needle^38.
(§7) Behavioral analysis. Mice were habituated in the testing environment for two days and performed behavioral testing in a blinded manner. Formalin-evoked spontaneous inflammatory pain was assessed by measuring duration (seconds) animals spent on licking/flinching the affected paws every 5 min for 45 min. Capsaicin-induced spontaneous pain was aslo assessed for 10 min. For testing mechanical sensitivity, mice were put in boxes on an elevated metal mesh floor and stimulated hindpaw with a series of von Frey hairs with logarithmically incrementing stiffness (0.02-2.56 grams, Stoelting), presented perpendicular to the plantar surface. It was determined the 50% paw withdrawal threshold using Dixon's up-down method^40. For testing heat sensitivity, mice were placed in plastic boxes and tested heat sensitivity using Hargreaves radiant heat apparatus (IITC Life Science Inc.). The basal paw withdrawal latency was adjusted to 9-12 seconds and set a cut-off of 20 seconds to prevent tissue damage. The percent maximal possible antinociceptive effect (% M.P.E) was calculated using the equation % M.P.E.=[(PL−BL2)/(BL1−BL2)]×100. BL1, baseline latency before inflammation; BL2, baseline latency after inflammation but before drug injection; PL, latency post drug injection.
(§8) Intrathecal injection. To avoid systemic effects of drugs and target spinal mechanisms, drugs were delivered into cerebral spinal fluid (CSF) space around lumbosacral spinal cord via intrathecal (i.t.) administration. Spinal cord puncture was made with a 30G needle between the L5 and L6 level to deliver the reagents (10 μl) to the cerebral spinal fluid (Hylden and Wilcox, 1980)^5. […] In addition to spinal cord cells, intrathecal drug administration also affects DRG cells^6,7.
Intrathecal injection: DHA and EPA (Cayman Chemical, 10 μg, prepared in 1% ethanol), COX-2 inhibitor NS-398 (Sigma, 0.1, 1, and 10 μg, prepared in 1% ethanol in FIG. 1a-c or in 10% ethanol in FIG. 2c), morphine (Sigma, 10 to 500 ng, prepared in 1% ethanol in FIG. 1a-c), naloxone (Sigma, 2 μg, prepared in 1% ethanol), pertussis toxin (Tocris Bioscience, 0.2 μg, prepared in saline), chemerin (R & D Systems, 0.45 to 100 ng, prepared in 1% ethanol), TNF-α (R & D Systems, 20 ng, prepared in saline), and capsaicin (Sigma, 0.5 μg in 10 μl, prepared in 1% DMSO) were delivered. To examine whether pretreatment of RvE1 attenuated TNF-α-induced persistent hyperalgesia at 1, 3, and 24 h, RvE1 and TNF-α were mixed and injected at the same time (FIG. 3c). To examine whether pretreatment of RvE1 attenuates capsaicin-induced acute spontaneous pain, RvE1 and capsaicin were mixed and injected at the same time (FIG. 3f).

[3] = system: carrageenan (CRG)-elicited heat hyperalgesia; assay: Carrageenan (CRG)-elicited heat hyperalgesia; format: in vivo, mice; conditions: intraplantar ChemR23 siRNA 4 μg at 48 h, 24 h, and 3 h before carrageenan; 4 h after CRG
Procedure: as §5, §7
Resolvins were also used for intraplantar injection. […]

ChemR23 = ChemR23 western blotting after siRNA knockdown; format: in vivo, mice
Procedure: siRNAs were mixed with the transfection reagent polyethyleneimine (PEI, Fermentas), 10 min before injection, to increase cell membrane penetration and reduce the degradation (Tan et al., 2005; 2009)^9,10. PEI was dissolved in 5% glucose, and […] of siRNA was mixed with 0.18 μl of PEI, as shown in our previous study (Kawasaki et al., 2008)^7. In the formalin model, siRNA was administrated via intrathecal route (3 μg), delivered at 72 h, 48 h, and 24 h before formalin injection (supplementary FIG. 1a, b). In the carrageenan model, siRNA was administrated via intraplantar route (4 μg), delivered at 48 h, 24 h, and 3 h before carrageenan injection (supplementary FIG. 1c, d). The knockdown effects of ChemR23 siRNA were examined by Western blotting using a ChemR23 antibody (Santa Cruz).
Animals were transcardially perfused with PBS, and the skin, DRG, and spinal cord tissues were rapidly removed and homogenized in a lysis buffer containing a cocktail of protease inhibitors and phosphatase inhibitors. The protein concentrations were determined by BCA Protein Assay (Pierce), and 30 μg of proteins were loaded for each lane and separated on SDS-PAGE gel (4-15%, Bio-Rad). After the transfer, the blots were incubated overnight at 4° C. with polyclonal antibody against ChemR23 (goat, 1:200, Santa Cruz). For loading control, the blots were probed with tubulin antibody (mouse, 1:5000, Sigma).

[4] = system: complete Freund's adjuvant (CFA)-evoked heat hyperalgesia; assay: CFA-evoked heat hyperalgesia (paw withdrawal latency, Hargreaves); format: in vivo, mice; conditions: intrathecal; for effective doses relative to that of RvE1: CFA heat hyperalgesia
Procedure: as §5, §6, §7, §8
The anti-hyperalgesic efficacy of RvE1 prepared in 1% and 10% ethanol was compared on post-CFA day 3.

[5] = system: SNL-induced neuropathic pain; assay: Neuropathic pain model induced by spinal nerve ligation (SNL); format: in vivo, mice; conditions: for SNL-induced heat hyperalgesia: 10 ng, i.t., one day after spinal nerve ligation
Procedure: as §5, §7

inflammatory pain = assay: Inflammatory pain models induced by formalin or CFA (summary statements); format: in vivo, mouse
Procedure: as §5, §7

[6] = capsaicin 100 nM, RvE1 1 ng/ml, chemerin 100 ng/ml, PD98059 and U0126 1 μM

COc1cccc(-c2cc(=O)c3ccccc3o2)c1N [PD98059, reference compound]
capsaicin-evoked sEPSC frequency increase (lamina II neurons; [6]): blocked
TNF-α-induced potentiation of NMDA currents (NMDAR activation) [1]: blocked

pertussis toxin
reversal of RvE1's antinociceptive action, formalin 2nd phase [2]: abrogated

CS(=O)(=O)Nc1ccc([N+](=O)[O-])cc1OC1CCCCC1 [NS-398]
formalin-induced pain behavior, 2nd phase [2]: Reduction

CN1CC[C@]23c4c5ccc(O)c4O[C@H]2[C@@H](O)C=C[C@H]3[C@H]1C5 [morphine]
formalin-induced pain behavior, 2nd phase [2]: Reduction

C=CCN1CC[C@]23c4c5ccc(O)c4O[C@H]2C(=O)CC[C@@]3(O)[C@H]1C5 [naloxone]
reversal of morphine's antinociceptive effect, formalin 2nd phase ([2]; intrathecal naloxone 2 μg): reversed
reversal of RvE1's antinociceptive action, formalin 2nd phase [2]: not RvE1's effect

ChemR23 siRNA: 5′-AACACUGUGUGGUUUGUCAACtt-3′, synthesized by Dharmacon (guide AACACUGUGUGGUUUGUCAACTT; chemistry not given here)
reversal of RvE1's antinociceptive action, formalin 2nd phase [2]: reverses RvE1-induced antinociceptive effect
reversal of RvE1-induced anti-hyperalgesic effect [3]: reverses RvE1-induced anti-hyperalgesic effect
ChemR23 expression in the hindpaw skin (ChemR23; intraplantar siRNA 4 μg at 48 h, 24 h, and 3 h before carrageenan): reduces ChemR23 expression in the hindpaw skin
ChemR23 expression in the DRG (ChemR23; intrathecal siRNA 3 μg, daily for 3 days, before formalin injection): reduces ChemR23 expression in the DRG

O=C(O)CCC[C@H](O)\C=C/C=C/C=C/[C@H](O)C/C=C\C=C\[C@@H](O)COc1ccc(F)cc1 [19-pf-RvE1, 19-(p-fluorophenoxy)-RvE1]
time for which hyperalgesia was reduced ([4]; post-CFA day 3): 6 h
SNL-induced heat hyperalgesia [5]: more persistent reduction in heat hyperalgesia
SNL-induced heat hyperalgesia ([5]; listed as modified RvE1): reduces SNL-induced heat hyperalgesia

CC/C=C\C/C=C\C/C=C\C/C=C\C/C=C\CCCC(=O)O [EPA, eicosapentaenoic acid, reference compound]
effective doses relative to that of RvE1 [4]: 10,000 times higher

Oc1cc2c(cc1O)CN(C(=S)NCCc1ccc(Cl)cc1)CCC2 [capsazepine, reference compound]
TNF-α-evoked sEPSC frequency increase (lamina II neurons; TNF-α 10 ng/ml, RvE1 1 ng/ml, capsazepine 10 μM): reduced
TNF-α-induced potentiation of NMDA currents (NMDAR activation) [1]: but not capsazepine blocked

CCC(=O)/C=C/C=C\C[C@@H](O)/C=C/C=C/C=C\[C@@H](O)CCCC(=O)O [18-oxo-RvE1, reference compound]
CFA-evoked heat hyperalgesia ([4]; post-CFA day 3, DHA and EPA 10 μg): essentially inactive

CC/C=C\C[C@H](O)\C=C/C=C/C=C/[C@H](O)C/C=C\C/C=C\CCC(=O)O [PD1]
nerve injury-induced hyperalgesia ([5]; neuropathic pain model induced by spinal nerve ligation): potently attenuate
pain-like behaviors (inflammatory pain): potently inhibit

N#CC(=C(/N)Sc1ccccc1N)/C(C#N)=C(\N)Sc1ccccc1N [U0126, reference compound]
capsaicin-evoked sEPSC frequency increase (lamina II neurons): blocked
TNF-α-induced potentiation of NMDA currents (NMDAR activation) [1]: blocked

COc1cc(CNC(=O)CCCC/C=C/C(C)C)ccc1O [capsaicin, reference compound]
increase in sEPSC frequency (lamina II neurons; capsaicin 100 nM): 2 fold

CC/C=C\C/C=C\C/C=C\C/C=C\C/C=C\C/C=C\CCC(=O)O [DHA, docosahexaenoic acid, reference compound]
effective doses relative to that of RvE1 [4]: 10,000 times higher

B1: chemerin: a peptide agonist for ChemR23 (R & D Systems) (protein, UniProt Q99969 21-157, looked up)
Retinoic acid receptor …: ELTEAQRRGLQVALEEFHKHPPVQWAFQETSVESAVDTPFPAGIFVRLEFKLQQTSCRKRDWKKPECKVRPNGRKRKCLACIKLGSEDKVLGRLVHCPIETQVLREAEEHQETQCLRVQRAGEDPHSFYFPGQFAFS
modifications: Chemerin
formalin-induced pain behavior, 2nd phase [2]: dose-dependently attenuated
capsaicin-evoked sEPSC frequency increase (lamina II neurons; [6]): abolished
